Like-named read-outs stand apart in the source and are kept apart here. Positions of bridges follow the written chain, without caps; N, C: chain ends. Residues, ends and D or L forms follow the SMILES beside them.
How the values were obtained:
Assay in all cases: cell-based
hNav1.7 = hNav1.7 (Homo sapiens, UniProt Q15858); type: cell-based
hNav1.5 = hNav1.5 (Homo sapiens, UniProt Q14524)
hNav1.3 = hNav1.3 (Homo sapiens, UniProt Q9NY46)
[1] = IonWorks Quattro, Use, read-out: IWQ Use Nav1.5
[2] = IonWorks Quattro, Use, read-out: IWQ Use Nav1.3

hNav1.7, sequence (Q15858 whole entry, looked up): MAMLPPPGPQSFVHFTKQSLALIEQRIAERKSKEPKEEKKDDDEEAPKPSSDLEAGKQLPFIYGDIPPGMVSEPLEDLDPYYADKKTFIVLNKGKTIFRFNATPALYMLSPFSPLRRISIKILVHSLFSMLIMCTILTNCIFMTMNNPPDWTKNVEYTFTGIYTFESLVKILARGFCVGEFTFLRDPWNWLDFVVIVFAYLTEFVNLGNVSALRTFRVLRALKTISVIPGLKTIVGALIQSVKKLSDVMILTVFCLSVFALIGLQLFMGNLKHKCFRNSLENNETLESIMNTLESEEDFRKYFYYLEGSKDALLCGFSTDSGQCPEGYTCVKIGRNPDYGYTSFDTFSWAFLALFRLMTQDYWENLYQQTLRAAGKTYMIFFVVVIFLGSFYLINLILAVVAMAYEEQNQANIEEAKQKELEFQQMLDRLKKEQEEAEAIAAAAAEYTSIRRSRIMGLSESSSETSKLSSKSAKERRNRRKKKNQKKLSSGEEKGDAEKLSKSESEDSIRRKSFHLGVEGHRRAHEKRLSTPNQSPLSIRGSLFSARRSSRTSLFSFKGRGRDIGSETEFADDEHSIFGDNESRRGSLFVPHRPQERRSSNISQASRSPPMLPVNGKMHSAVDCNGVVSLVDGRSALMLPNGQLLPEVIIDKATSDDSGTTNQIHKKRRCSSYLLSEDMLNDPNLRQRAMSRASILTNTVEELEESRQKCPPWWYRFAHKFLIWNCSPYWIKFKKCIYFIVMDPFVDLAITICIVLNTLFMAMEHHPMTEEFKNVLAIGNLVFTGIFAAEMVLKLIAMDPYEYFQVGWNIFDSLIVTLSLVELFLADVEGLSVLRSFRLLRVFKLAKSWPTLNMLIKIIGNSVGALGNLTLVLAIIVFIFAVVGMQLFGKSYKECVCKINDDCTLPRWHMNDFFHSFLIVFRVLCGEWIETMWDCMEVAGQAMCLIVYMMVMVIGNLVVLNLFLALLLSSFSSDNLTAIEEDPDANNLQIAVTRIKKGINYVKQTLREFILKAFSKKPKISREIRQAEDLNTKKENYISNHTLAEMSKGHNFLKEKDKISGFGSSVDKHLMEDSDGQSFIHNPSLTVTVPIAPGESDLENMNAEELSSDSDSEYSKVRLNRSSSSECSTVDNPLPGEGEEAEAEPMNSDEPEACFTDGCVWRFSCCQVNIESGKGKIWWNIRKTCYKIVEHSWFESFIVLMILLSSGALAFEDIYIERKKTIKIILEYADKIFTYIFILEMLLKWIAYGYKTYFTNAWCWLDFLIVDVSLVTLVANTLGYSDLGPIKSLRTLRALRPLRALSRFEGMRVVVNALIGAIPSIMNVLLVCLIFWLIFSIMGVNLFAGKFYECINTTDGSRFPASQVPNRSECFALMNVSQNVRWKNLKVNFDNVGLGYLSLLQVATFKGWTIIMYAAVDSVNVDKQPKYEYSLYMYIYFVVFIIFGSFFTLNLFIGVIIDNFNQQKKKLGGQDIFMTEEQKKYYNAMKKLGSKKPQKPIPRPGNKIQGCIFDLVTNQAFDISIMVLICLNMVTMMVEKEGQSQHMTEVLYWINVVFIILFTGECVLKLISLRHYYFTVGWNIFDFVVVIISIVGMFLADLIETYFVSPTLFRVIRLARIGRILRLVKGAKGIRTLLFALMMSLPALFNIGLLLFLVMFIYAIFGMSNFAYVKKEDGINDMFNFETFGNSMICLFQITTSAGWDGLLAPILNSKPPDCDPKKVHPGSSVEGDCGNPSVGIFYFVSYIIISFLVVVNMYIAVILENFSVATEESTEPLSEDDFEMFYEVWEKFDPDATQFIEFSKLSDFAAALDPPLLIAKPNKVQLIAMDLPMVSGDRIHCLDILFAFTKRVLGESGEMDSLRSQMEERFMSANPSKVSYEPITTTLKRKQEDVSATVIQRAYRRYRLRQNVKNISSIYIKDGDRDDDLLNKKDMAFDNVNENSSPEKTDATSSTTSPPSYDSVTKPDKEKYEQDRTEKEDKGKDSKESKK
hNav1.5, sequence (Q14524 whole entry, looked up): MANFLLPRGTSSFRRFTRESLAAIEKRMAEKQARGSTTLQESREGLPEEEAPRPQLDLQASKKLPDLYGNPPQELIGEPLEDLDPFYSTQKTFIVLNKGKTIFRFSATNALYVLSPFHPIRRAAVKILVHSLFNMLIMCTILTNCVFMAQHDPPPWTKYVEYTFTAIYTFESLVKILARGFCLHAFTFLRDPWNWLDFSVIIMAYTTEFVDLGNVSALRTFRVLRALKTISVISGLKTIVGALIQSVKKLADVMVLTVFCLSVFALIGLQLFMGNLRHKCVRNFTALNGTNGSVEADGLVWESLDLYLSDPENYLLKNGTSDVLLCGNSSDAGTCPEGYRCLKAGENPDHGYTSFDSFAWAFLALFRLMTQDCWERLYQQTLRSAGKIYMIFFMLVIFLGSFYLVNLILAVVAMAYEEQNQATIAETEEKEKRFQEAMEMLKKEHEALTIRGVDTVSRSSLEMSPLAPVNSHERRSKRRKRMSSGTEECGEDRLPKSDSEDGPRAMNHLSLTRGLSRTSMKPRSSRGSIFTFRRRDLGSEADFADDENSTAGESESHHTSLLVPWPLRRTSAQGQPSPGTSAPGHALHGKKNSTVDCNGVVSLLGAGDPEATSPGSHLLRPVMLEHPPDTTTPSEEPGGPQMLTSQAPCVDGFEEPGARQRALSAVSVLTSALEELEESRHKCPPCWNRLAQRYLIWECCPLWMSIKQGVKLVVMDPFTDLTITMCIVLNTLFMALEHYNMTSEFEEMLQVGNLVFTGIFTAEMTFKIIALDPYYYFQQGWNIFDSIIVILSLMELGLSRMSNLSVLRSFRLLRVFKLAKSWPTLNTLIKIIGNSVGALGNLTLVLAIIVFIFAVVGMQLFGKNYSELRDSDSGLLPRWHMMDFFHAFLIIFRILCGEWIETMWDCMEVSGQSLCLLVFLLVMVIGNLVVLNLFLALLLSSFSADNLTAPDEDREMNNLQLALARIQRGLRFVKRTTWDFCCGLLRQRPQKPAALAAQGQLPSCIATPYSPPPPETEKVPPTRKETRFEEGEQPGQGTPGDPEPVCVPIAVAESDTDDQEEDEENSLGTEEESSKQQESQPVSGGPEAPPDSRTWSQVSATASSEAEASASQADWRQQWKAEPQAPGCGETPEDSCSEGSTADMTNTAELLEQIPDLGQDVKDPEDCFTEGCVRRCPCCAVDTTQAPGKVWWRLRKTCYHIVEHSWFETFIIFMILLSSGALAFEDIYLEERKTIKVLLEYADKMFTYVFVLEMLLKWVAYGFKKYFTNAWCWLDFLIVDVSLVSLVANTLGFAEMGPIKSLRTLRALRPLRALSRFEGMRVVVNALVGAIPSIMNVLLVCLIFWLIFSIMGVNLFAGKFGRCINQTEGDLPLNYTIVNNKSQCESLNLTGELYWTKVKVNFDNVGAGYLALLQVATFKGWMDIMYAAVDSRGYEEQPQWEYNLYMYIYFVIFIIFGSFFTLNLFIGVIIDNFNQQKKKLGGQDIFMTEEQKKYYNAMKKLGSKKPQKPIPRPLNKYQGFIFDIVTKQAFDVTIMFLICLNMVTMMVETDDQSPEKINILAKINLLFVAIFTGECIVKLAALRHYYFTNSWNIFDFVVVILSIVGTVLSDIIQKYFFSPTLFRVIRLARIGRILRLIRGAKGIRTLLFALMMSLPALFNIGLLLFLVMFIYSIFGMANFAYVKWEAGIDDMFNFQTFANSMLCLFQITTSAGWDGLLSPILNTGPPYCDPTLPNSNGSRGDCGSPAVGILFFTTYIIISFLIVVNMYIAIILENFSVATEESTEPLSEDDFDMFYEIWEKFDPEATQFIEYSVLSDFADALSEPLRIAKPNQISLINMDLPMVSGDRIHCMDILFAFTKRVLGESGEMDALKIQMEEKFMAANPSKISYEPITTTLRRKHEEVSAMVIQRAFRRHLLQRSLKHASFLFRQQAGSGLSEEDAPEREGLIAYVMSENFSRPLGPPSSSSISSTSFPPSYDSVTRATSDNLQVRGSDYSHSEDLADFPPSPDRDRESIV

Q: Which results are given for `CC[C@H](C)[C@@H]1NC(=O)[C@@H]2CSSC[C@@H]3NC(=O)[C@H](C(C)C)NC(=O)[C@H](CC(C)C)NC(=O)[C@H](CC(N)=O)NC(=O)[C@@H]4CCCN4C(=O)[C@H](CCCCN)NC(=O)[C@H](CSSC[C@H](NC(=O)[C@@H](N)CC(=O)O)C(=O)N[C@@H](CC(C)C)C(=O)NCC(=O)N[C@@H](Cc4ccccc4)C(=O)N[C@@H](CCSC)C(=O)N[C@@H](CCCNC(=N)N)C(=O)N[C@@H](CCCCN)C(=O)N2)NC(=O)[C@H](CSSC[C@@H](C(=O)N[C@@H](CCCCN)C(=O)N[C@@H](Cc2ccc(O)cc2)C(=O)N[C@H](C(=O)N[C@@H](Cc2ccccc2)C(N)=O)C(C)C)NC(=O)[C@H](Cc2c[nH]c4ccccc24)NC(=O)[C@H](CCCCN)NC(=O)[C@H](Cc2cnc[nH]2)NC(=O)[C@H]([C@@H](C)O)NC(=O)[C@H](CCCNC(=N)N)NC(=O)[C@H](CO)NC3=O)NC(=O)[C@H](CCCCN)NC(=O)[C@H](CC(=O)O)NC(=O)[C@H](CC(N)=O)NC(=O)[C@H](CC(=O)O)NC(=O)[C@@H]2CCCN2C1=O` [compound 49] (H-DCLGFMRKCIPDNDKCCKPNLVCSRTHKWCKYVF-NH2; disulfide 2-17, 9-23, 16-30)?
A: IC50 (hNav1.7): 0.3 µM; IC50 (hNav1.5; [1]): 17.6 µM; IC50 (hNav1.3; [2]): 0.21 µM

Q: What does the source list for `CC[C@H](C)[C@@H]1NC(=O)[C@@H]2CSSC[C@@H]3NC(=O)[C@H](C(C)C)NC(=O)[C@H](CC(C)C)NC(=O)[C@H](CCCCN)NC(=O)[C@@H]4CCCN4C(=O)[C@H](CCCNC(=N)N)NC(=O)[C@H](CSSC[C@H](NC(=O)[C@@H](N)CC(=O)O)C(=O)N[C@@H](CC(C)C)C(=O)NCC(=O)N[C@@H](Cc4ccccc4)C(=O)N[C@@H](CCSC)C(=O)N[C@@H](CCCNC(=N)N)C(=O)N[C@@H](CCCCN)C(=O)N2)NC(=O)[C@H](CSSC[C@@H](C(=O)N[C@@H](CCCCN)C(=O)N[C@@H](Cc2ccc(O)cc2)C(=O)N[C@H](C(=O)N[C@@H](Cc2ccccc2)C(N)=O)C(C)C)NC(=O)[C@H](Cc2c[nH]c4ccccc24)NC(=O)[C@H](CCCCN)NC(=O)[C@H](Cc2cnc[nH]2)NC(=O)[C@H]([C@@H](C)O)NC(=O)[C@H](CCCNC(=N)N)NC(=O)[C@H](CO)NC3=O)NC(=O)[C@H](CCCCN)NC(=O)[C@H](CC(=O)O)NC(=O)[C@H](CC(N)=O)NC(=O)[C@H](CC(=O)O)NC(=O)[C@@H]2CCCN2C1=O` [compound 51] (H-DCLGFMRKCIPDNDKCCRPKLVCSRTHKWCKYVF-NH2; disulfide 2-17, 9-23, 16-30)?
A: IC50 (hNav1.7; IonWorks Quattro, Use, read-out: IWQ Use Nav1.7): 0.61 µM; IC50 (hNav1.5; [1]): 19 µM; IC50 (hNav1.3; [2]): 0.33 µM

Q: For `CC[C@H](C)[C@@H]1NC(=O)[C@@H]2CSSC[C@@H]3NC(=O)[C@H](CCCCN)NC(=O)[C@H](CC(C)C)NC(=O)[C@H](CC(N)=O)NC(=O)[C@@H]4CCCN4C(=O)[C@H](CCCNC(=N)N)NC(=O)[C@H](CSSC[C@H](NC(=O)[C@@H](N)CC(=O)O)C(=O)N[C@@H](CC(C)C)C(=O)NCC(=O)N[C@@H](Cc4ccccc4)C(=O)N[C@@H](CCSC)C(=O)N[C@@H](CCCNC(=N)N)C(=O)N[C@@H](CCCCN)C(=O)N2)NC(=O)[C@H](CSSC[C@@H](C(=O)N[C@@H](CCCCN)C(=O)N[C@@H](Cc2ccc(O)cc2)C(=O)N[C@H](C(=O)N[C@@H](Cc2ccccc2)C(N)=O)C(C)C)NC(=O)[C@H](Cc2c[nH]c4ccccc24)NC(=O)[C@H](CCCCN)NC(=O)[C@H](Cc2cnc[nH]2)NC(=O)[C@H]([C@@H](C)O)NC(=O)[C@H](CCCNC(=N)N)NC(=O)[C@H](CO)NC3=O)NC(=O)[C@H](CCCCN)NC(=O)[C@H](CC(=O)O)NC(=O)[C@H](CC(N)=O)NC(=O)[C@H](CC(=O)O)NC(=O)[C@@H]2CCCN2C1=O` [compound 52] (H-DCLGFMRKCIPDNDKCCRPNLKCSRTHKWCKYVF-NH2; disulfide 2-17, 9-23, 16-30), which IC50 (hNav1.7) is on record?
A: Its IC50 is 0.19 µM.

Q: And the IC50 (hNav1.5; [1])?
A: The IC50 was 15 µM.

Q: And the IC50 (hNav1.3; [2])?
A: The IC50 was 0.08 µM.

Q: What does the source list for `CC[C@H](C)[C@@H]1NC(=O)[C@@H]2CSSC[C@@H]3NC(=O)[C@H](C(C)C)NC(=O)[C@H](CC(C)C)NC(=O)[C@H](CC(N)=O)NC(=O)[C@@H]4CCCN4C(=O)[C@H](CCCNC(=N)N)NC(=O)[C@H](CSSC[C@H](NC(=O)[C@@H](N)CC(=O)O)C(=O)N[C@@H](CC(C)C)C(=O)NCC(=O)N[C@@H](Cc4ccccc4)C(=O)N[C@@H](CCSC)C(=O)N[C@@H](CCCNC(=N)N)C(=O)N[C@@H](CCCCN)C(=O)N2)NC(=O)[C@H](CSSC[C@@H](C(=O)N[C@@H](CCCCN)C(=O)N[C@@H](Cc2ccc(O)cc2)C(=O)N[C@H](C(=O)N[C@@H](Cc2ccccc2)C(N)=O)C(C)C)NC(=O)[C@H](Cc2c[nH]c4ccccc24)NC(=O)[C@H](CCCCN)NC(=O)[C@H](Cc2cnc[nH]2)NC(=O)[C@H](CCCCN)NC(=O)[C@H](CCCNC(=N)N)NC(=O)[C@H](CO)NC3=O)NC(=O)[C@H](CCCCN)NC(=O)[C@H](CC(=O)O)NC(=O)[C@H](CC(N)=O)NC(=O)[C@H](CC(=O)O)NC(=O)[C@@H]2CCCN2C1=O` [compound 54] (H-DCLGFMRKCIPDNDKCCRPNLVCSRKHKWCKYVF-NH2; disulfide 2-17, 9-23, 16-30)?
A: IC50 (hNav1.7; Table 22, IonWorks Quattro, use, […], read-out: IWQ Use Nav1.7): 0.05 µM; IC50 (hNav1.5; Table 22, IonWorks Quattro, use, […], read-out: IWQ Use Nav1.5): 7.96 µM; IC50 (hNav1.3; Table 22, IonWorks Quattro, use, […], read-out: IWQ Use Nav1.3): 0.02 µM

Q: Which IC50 (hNav1.7; Table 23, IonWorks Quattro, use, […], read-out: IWQ Use Nav1.7) does the source give for `CC[C@H](C)[C@@H]1NC(=O)[C@@H]2CSSC[C@@H]3NC(=O)[C@H](C(C)C)NC(=O)[C@H](CC(C)C)NC(=O)[C@H](CC(N)=O)NC(=O)[C@@H]4CCCN4C(=O)[C@H](CCCNC(=N)N)NC(=O)[C@H](CSSC[C@H](NC(=O)[C@@H](N)CC(=O)O)C(=O)N[C@@H](CC(C)C)C(=O)NCC(=O)N[C@@H](Cc4ccccc4)C(=O)N[C@@H](CCSC)C(=O)N[C@@H](CCCNC(=N)N)C(=O)N[C@@H](CCCCN)C(=O)N2)NC(=O)[C@H](CSSC[C@@H](C(=O)N[C@@H](CCCCN)C(=O)N[C@@H](Cc2ccc(O)cc2)C(=O)N[C@H](C(=O)N[C@@H](Cc2ccccc2)C(N)=O)C(C)C)NC(=O)[C@H](Cc2c[nH]c4ccccc24)NC(=O)[C@H](CCCCN)NC(=O)[C@H](CCCCN)NC(=O)[C@H]([C@@H](C)O)NC(=O)[C@H](CCCNC(=N)N)NC(=O)[C@H](CO)NC3=O)NC(=O)[C@H](CCCCN)NC(=O)[C@H](CC(=O)O)NC(=O)[C@H](CC(N)=O)NC(=O)[C@H](CC(=O)O)NC(=O)[C@@H]2CCCN2C1=O` [compound 55] (H-DCLGFMRKCIPDNDKCCRPNLVCSRTKKWCKYVF-NH2; disulfide 2-17, 9-23, 16-30) here?
A: Its IC50 is 1.51 µM.

Q: What about the IC50 (hNav1.5; Table 23, IonWorks Quattro, use, […], read-out: IWQ Use Nav1.5) of the same compound?
A: Its IC50 is 11.5 µM.

Q: And the IC50 (hNav1.3; Table 23, IonWorks Quattro, use, […], read-out: IWQ Use Nav1.3)?
A: Its IC50 is 2.48 µM.

Q: Which results are given for `CC[C@H](C)[C@@H]1NC(=O)[C@@H]2CSSC[C@@H]3NC(=O)[C@H](C(C)C)NC(=O)[C@H](CC(C)C)NC(=O)[C@H](CC(N)=O)NC(=O)[C@@H]4CCCN4C(=O)[C@H](CCCNC(=N)N)NC(=O)[C@H](CSSC[C@H](NC(=O)[C@@H](N)CC(=O)O)C(=O)N[C@@H](CC(C)C)C(=O)NCC(=O)N[C@@H](Cc4ccccc4)C(=O)N[C@@H](CCSC)C(=O)N[C@@H](CCCNC(=N)N)C(=O)N[C@@H](CCCCN)C(=O)N2)NC(=O)[C@H](CSSC[C@@H](C(=O)N[C@@H](CCCCN)C(=O)N[C@@H](Cc2ccc(O)cc2)C(=O)N[C@H](C(=O)N[C@@H](Cc2ccccc2)C(N)=O)C(C)C)NC(=O)[C@H](CCCCN)NC(=O)[C@H](CCCCN)NC(=O)[C@H](Cc2cnc[nH]2)NC(=O)[C@H]([C@@H](C)O)NC(=O)[C@H](CCCNC(=N)N)NC(=O)[C@H](CO)NC3=O)NC(=O)[C@H](CCCCN)NC(=O)[C@H](CC(=O)O)NC(=O)[C@H](CC(N)=O)NC(=O)[C@H](CC(=O)O)NC(=O)[C@@H]2CCCN2C1=O` [compound 56] (H-DCLGFMRKCIPDNDKCCRPNLVCSRTHKKCKYVF-NH2; disulfide 2-17, 9-23, 16-30)?
A: IC50 (hNav1.7): 20.1 µM; IC50 (hNav1.5; IWQ Use Nav1.5 (μM)): 14.7 µM; IC50 (hNav1.3): 24.5 µM

Q: For `CC[C@H](C)[C@@H]1NC(=O)[C@@H]2CSSC[C@@H]3NC(=O)[C@H](C(C)C)NC(=O)[C@H](CC(C)C)NC(=O)[C@H](CC(N)=O)NC(=O)[C@@H]4CCCN4C(=O)[C@H](CCCNC(=N)N)NC(=O)[C@H](CSSC[C@H](NC(=O)[C@@H](N)CC(=O)O)C(=O)N[C@@H](CC(C)C)C(=O)NCC(=O)N[C@@H](Cc4ccccc4)C(=O)N[C@@H](CCSC)C(=O)N[C@@H](CCCNC(=N)N)C(=O)N[C@@H](CCCCN)C(=O)N2)NC(=O)[C@H](CSSC[C@@H](C(=O)N[C@@H](CCCCN)C(=O)N[C@@H](CCCCN)C(=O)N[C@H](C(=O)N[C@@H](Cc2ccccc2)C(N)=O)C(C)C)NC(=O)[C@H](Cc2c[nH]c4ccccc24)NC(=O)[C@H](CCCCN)NC(=O)[C@H](Cc2cnc[nH]2)NC(=O)[C@H]([C@@H](C)O)NC(=O)[C@H](CCCNC(=N)N)NC(=O)[C@H](CO)NC3=O)NC(=O)[C@H](CCCCN)NC(=O)[C@H](CC(=O)O)NC(=O)[C@H](CC(N)=O)NC(=O)[C@H](CC(=O)O)NC(=O)[C@@H]2CCCN2C1=O` [compound 57] (H-DCLGFMRKCIPDNDKCCRPNLVCSRTHKWCKKVF-NH2; disulfide 2-17, 9-23, 16-30), which IC50 (hNav1.7; Table 25, IonWorks Quattro, use, […], read-out: IWQ Use Nav1.7) is on record?
A: Its IC50 is 4.96 µM.

Q: What about the IC50 (hNav1.5; Table 25, IonWorks Quattro, use, […], read-out: IWQ Use Nav1.5) of the same compound?
A: The IC50 was 10.9 µM.

Q: And the IC50 (hNav1.3; Table 25, IonWorks Quattro, use, […], read-out: IWQ Use Nav1.3)?
A: The IC50 was 4.19 µM.

Reference: US9340590B2 (priority 2011, dated 2016)
